Where a name gives a salt, the structure may show the parent alone. Read-outs that look alike come from different tables or passages of the source.
Key:
human TRPV1 = target: T1, human TRPV1 (Homo sapiens, UniProt Q8NER1, M315I/T336M); test: Intracellular calcium (Fluo-4, FLIPR) activation of TRPV1 cells by GRAS compounds; format: cell-based; settings: relative to capsaicin 350 nM; for activation at 1000 µM / V1 activation, % of agonist value: 1 mM; for activation at 1000 µM / activation at 100 µM: read-out: V1 activation, % of agonist value; for activation at 100 µM: 100 μM (marked *);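 on all read-outs here: TRPV1-expressing cells, FLIPR fluorescence at 488/514 nm with baseline subtracted, sampled every 2 s for 10 min after adding compound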
T1 construct: expressed in transfected cells; pcDNA3 control cells
T1 sequence (Q8NER1 whole entry M315I/T336M): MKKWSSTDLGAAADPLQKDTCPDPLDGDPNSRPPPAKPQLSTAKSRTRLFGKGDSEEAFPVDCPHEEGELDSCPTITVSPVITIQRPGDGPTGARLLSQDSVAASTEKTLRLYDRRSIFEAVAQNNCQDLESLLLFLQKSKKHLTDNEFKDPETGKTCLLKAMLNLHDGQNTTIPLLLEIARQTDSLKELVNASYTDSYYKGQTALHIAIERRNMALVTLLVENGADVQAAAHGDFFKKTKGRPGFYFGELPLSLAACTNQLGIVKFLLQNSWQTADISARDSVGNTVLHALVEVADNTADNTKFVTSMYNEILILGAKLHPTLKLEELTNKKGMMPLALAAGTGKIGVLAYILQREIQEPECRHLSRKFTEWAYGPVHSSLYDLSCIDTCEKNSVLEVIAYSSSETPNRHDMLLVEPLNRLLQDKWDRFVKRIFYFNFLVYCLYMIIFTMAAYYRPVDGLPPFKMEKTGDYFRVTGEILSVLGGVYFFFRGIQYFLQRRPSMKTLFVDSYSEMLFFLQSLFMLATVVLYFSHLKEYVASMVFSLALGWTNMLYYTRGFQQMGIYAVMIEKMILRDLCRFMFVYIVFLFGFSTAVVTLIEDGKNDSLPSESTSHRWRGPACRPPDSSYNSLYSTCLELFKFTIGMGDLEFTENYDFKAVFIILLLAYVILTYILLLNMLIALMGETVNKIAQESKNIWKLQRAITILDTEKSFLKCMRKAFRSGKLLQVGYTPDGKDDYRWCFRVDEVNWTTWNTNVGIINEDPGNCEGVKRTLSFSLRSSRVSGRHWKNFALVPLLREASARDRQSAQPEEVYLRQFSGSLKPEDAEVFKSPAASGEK

TRPA1V1 = test: Intracellular calcium (Fluo-4, FLIPR) activation of TRPA1V1 cells (co-expressing TRPA1 and TRPV1) by GRAS compounds; format: cell-based, human;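 further: HEK293 cells co-expressing TRPA1 and TRPV1, fluorescence read at 488/514 nm after baseline subtraction, recorded every 2 s over 10 min, ionomycin 10 µM and buffer as controls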
Method: TRPV1, TRPA1, TRPA1V1 and pcDNA3 cells were grown in 15 mL growth medium [high glucose DMEM (Dulbecco's modification of Eagle's medium) supplemented with 10% FBS (fetal bovine serum), 100 μg/mL penicillin/streptomycin, 100 μg/mL G418] in a 75 cm^2 flask for 3 days in a mammalian cell culture incubator at 33° C. and 5% CO2. TRP Cells were detached with 8 mL of PBS (without calcium or magnesium); for pcDNA3 cells, trypsin was used for releasing the cells. The detached cells were spun at low speed (800-900 rpm for 3 min) to pellet the cells. […] The cells were washed once with 45 mL assay buffer (1×HBSS, 20 mM HEPES) by low speed centrifugation (800-900 rpm for 3 min) and resuspended in 11 mL of the assay buffer in a reagent reservoir. […] The plates were set at room temperature for 30 min. The plates were read in a FLIPR^TETRA instrument (Molecular Devices, Sunnyvale, Calif.) at λex 488 nm and λem 514 nm to record baseline fluorescence following which 20 μL of test material at 1 mM or 100 μM final concentration for pure compounds in a GRAS library or 0.004% for extracts. For agonists, capsaicin 350 nM and AITC at 30 μM; and for controls, ionomycin 10 μM and buffer alone) was added to each well using the dispenser provided in the FLIPR. The data point was recorded every 2 seconds for a total of 10 min.
Average value for activation from three independent assay plates are presented as % of agonist value (AITC, 30 μM for TRPA1 and capsaicin, 350 nM for TRPV1. For TRPA1V1, we used AITC, 30 μM or capsaicin, 350 nM depending on if the compound is an A1 agonist or a V1 agonist. For compounds that activated both A1 and V1, we used AITC for normalization). Variation among triplicates was within 10% of each other. Assayed at 1 mM for pure compounds and 0.004% for extracts.

human TRPA1 = target: T2, human TRPA1 (Homo sapiens, UniProt O75762, K186N/R3C/R58T); test: Intracellular calcium (Fluo-4, FLIPR) activation of TRPA1 cells by GRAS compounds; format: cell-based; settings: 1 mM, relative to AITC 30 μM; for activation at 1000 µM: read-out: A1 activation, % of agonist value;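 on all read-outs here: TRPA1-expressing cells, fluorescence read on a FLIPR Tetra (ex 488 nm, em 514 nm) every 2 s for 10 min after compound addition, baseline subtracted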
T2 construct: expressed in transfected cells; pcDNA3 control cells
T2 sequence (O75762 whole entry R3C/R58T/K186N): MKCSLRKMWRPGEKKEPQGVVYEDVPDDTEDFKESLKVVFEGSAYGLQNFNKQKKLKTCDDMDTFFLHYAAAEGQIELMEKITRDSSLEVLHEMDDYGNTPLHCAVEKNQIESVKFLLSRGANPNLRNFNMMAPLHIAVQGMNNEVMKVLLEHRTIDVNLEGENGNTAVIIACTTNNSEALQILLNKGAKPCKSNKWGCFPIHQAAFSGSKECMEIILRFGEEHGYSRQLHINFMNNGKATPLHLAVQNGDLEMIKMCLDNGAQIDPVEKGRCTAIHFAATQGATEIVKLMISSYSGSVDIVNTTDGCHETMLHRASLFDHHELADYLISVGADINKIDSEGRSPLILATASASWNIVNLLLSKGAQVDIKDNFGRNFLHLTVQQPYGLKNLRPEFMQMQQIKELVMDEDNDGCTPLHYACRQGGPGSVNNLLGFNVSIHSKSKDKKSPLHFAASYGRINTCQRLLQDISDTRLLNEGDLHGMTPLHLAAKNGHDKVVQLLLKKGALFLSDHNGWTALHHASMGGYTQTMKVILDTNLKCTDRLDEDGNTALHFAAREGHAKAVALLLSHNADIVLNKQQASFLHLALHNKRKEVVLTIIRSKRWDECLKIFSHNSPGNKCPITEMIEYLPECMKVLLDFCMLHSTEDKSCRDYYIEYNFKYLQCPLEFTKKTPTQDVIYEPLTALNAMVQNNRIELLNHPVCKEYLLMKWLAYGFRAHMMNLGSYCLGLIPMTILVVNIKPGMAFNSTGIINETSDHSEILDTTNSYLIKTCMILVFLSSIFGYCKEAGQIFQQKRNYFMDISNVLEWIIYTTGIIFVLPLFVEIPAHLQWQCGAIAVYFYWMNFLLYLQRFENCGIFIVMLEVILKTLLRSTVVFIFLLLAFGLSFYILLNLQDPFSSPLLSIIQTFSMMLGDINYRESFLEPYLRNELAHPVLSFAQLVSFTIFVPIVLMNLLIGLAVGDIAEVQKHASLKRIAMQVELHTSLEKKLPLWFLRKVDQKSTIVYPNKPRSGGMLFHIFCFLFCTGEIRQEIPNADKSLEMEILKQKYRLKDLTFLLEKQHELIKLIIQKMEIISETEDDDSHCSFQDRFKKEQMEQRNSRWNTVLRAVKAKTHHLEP

[1] = Table 1(g), 1 mM, relative to capsaicin 350 nM
[2] = Table 1(h), 100 μM (marked *), relative to capsaicin 350 nM
[3] = Table 1(h), 1 mM, relative to capsaicin 350 nM
[4] = Table 1(f), 1 mM, relative to capsaicin 350 nM
[5] = Table 1(c), 1 mM, relative to AITC 30 μM
[6] = Table 1(d), 1 mM, relative to AITC 30 μM
[7] = Table 1(e), 1 mM, relative to AITC 30 μM

## CC1SCCS1 [1,3-Dithiolane, 2-methyl-]
Human TRPV1; Table 1(g)
  activation at 1000 µM: 66.2%
TRPA1V1; [1]
  A1V1 activation, % of agonist value: 119.9%

## C=CCSCC=C [1-Propene, 3,3′-thiobis-]
Human TRPV1; Table 1(g)
  activation at 1000 µM: 47.3%
TRPA1V1; [1]
  A1V1 activation, % of agonist value: 108.4%

## CCCCCCCC=CC=CC=O [2,4-Dodecadienal]
Human TRPV1; Table 1(h)
  activation at 100 µM: 199%
TRPA1V1; [2]
  A1V1 activation, % of agonist value: 53.5%

## Cc1ccc(C)c(O)c1 [2,5-Dimethylphenol]
Human TRPV1; Table 1(h)
  activation at 1000 µM: 81.2%
TRPA1V1; [3]
  A1V1 activation, % of agonist value: 34.2%

## Cc1cccc(C)c1O [2,6-Dimethylphenol]
Human TRPV1; Table 1(h)
  activation at 1000 µM: 72.1%
TRPA1V1; [3]
  A1V1 activation, % of agonist value: 45.8%

## O=CC(=Cc1ccco1)c1ccccc1 [2-Furanacrolein, alpha-phenyl-]
Human TRPV1; Table 1(f)
  V1 activation, % of agonist value: 55.7%
TRPA1V1; [4]
  A1V1 activation, % of agonist value: 66.2%

## CC(C)c1ccccc1O [2-Isopropylphenol]
Human TRPV1; Table 1(h)
  activation at 1000 µM: 108%
TRPA1V1; [3]
  A1V1 activation, % of agonist value: 83.5%

## Cc1ccc(C(C)CC=O)o1 (stereo not shown) [3-(5-Methyl-2-furyl)butanal]
Human TRPV1; Table 1(f)
  activation at 1000 µM: 103%
TRPA1V1; [4]
  A1V1 activation, % of agonist value: 91.6%

## CC(=O)c1cc(C)sc1C [3-Acetyl-2,5-dimethylthiophene]
Human TRPV1; Table 1(f)
  activation at 1000 µM: 95.1%
TRPA1V1; [4]
  A1V1 activation, % of agonist value: 84.9%

## CCCCCCCC1CC(C)OC1=O (stereo not shown) [3-Heptyldihydro-5-methylfuran-2(3H)-one]
Human TRPV1; Table 1(f)
  activation at 1000 µM: 45.5%
TRPA1V1; [4]
  A1V1 activation, % of agonist value: 40.5%

## CCC(C)(O)CCc1ccccc1 (stereo not shown) [3-Methyl-1-phenyl-3-pentanol]
Human TRPV1; Table 1(h)
  activation at 1000 µM: 100%
TRPA1V1; [3]
  A1V1 activation, % of agonist value: 70.5%

## CC(=O)CCc1ccc(OC(C)=O)cc1 [4-(p-Acetoxyphenyl)-2-butanone]
Human TRPV1; Table 1(g)
  activation at 1000 µM: 58.9%
TRPA1V1; [1]
  A1V1 activation, % of agonist value: 91.8%

## CCCCCCC1CCC(=O)O1 (stereo not shown) [4-Decanolide]
Human TRPV1; Table 1(f)
  activation at 1000 µM: 40.9%
TRPA1V1; [4]
  A1V1 activation, % of agonist value: 35.8%

## CCc1ccc(C=O)cc1 [4-Ethylbenzaldehyde]
Human TRPV1; Table 1(g)
  activation at 1000 µM: 56.3%
TRPA1V1; [1]
  A1V1 activation, % of agonist value: 120.3%

## CC(=O)c1ccc(C)cc1 [4′-Methylacetophenone]
Human TRPV1; Table 1(g)
  activation at 1000 µM: 55%
TRPA1V1; [1]
  A1V1 activation, % of agonist value: 136.6%

## Cc1ccc(C=O)s1 [5-Methyl-2-thiophenecarboxaldehyde]
Human TRPV1; Table 1(g)
  activation at 1000 µM: 58.9%
TRPA1V1; [1]
  A1V1 activation, % of agonist value: 111.4%

## CCCCCc1cccc(=O)o1 [6-Pentyl-alpha-pyrone]
Human TRPV1; Table 1(g)
  V1 activation, % of agonist value: 66.1%
TRPA1V1; [1]
  A1V1 activation, % of agonist value: 95.2%

## CC1(C)[C@@H](O[C@H]2O[C@H](C(=O)O)[C@@H](O)[C@H](O)[C@H]2O[C@@H]2O[C@H](C(=O)O)[C@@H](O)[C@H](O)[C@H]2O)CC[C@]2(C)[C@H]3C(=O)C=C4[C@@H]5C[C@@](C)(C(=O)O)CC[C@]5(C)CC[C@@]4(C)[C@]3(C)CC[C@@H]12 [18beta-Glycyrrhizinic acid]
Human TRPV1; Table 1(g)
  V1 activation, % of agonist value: 100.9%
TRPA1V1; [1]
  A1V1 activation, % of agonist value: 162.7%

## CC(C)[C@@H]1CC[C@@H](C)C[C@@H]1O [(+)-Neomenthol]
Human TRPV1; Table 1(h)
  V1 activation, % of agonist value: 68.8%
TRPA1V1; [3]
  A1V1 activation, % of agonist value: 44.8%

## CC(=O)S [Acetic acid, thio-]
Human TRPV1; Table 1(g)
  V1 activation, % of agonist value: 61.9%
TRPA1V1; [1]
  A1V1 activation, % of agonist value: 115.1%

## O=C(O)CCCCC(=O)O [Adipic acid]
Human TRPV1; Table 1(g)
  activation at 1000 µM: 47.6%
TRPA1V1; [1]
  A1V1 activation, % of agonist value: 70.4%

## COc1ccccc1 [Anisole]
Human TRPV1; Table 1(h)
  activation at 100 µM: 48.3%
TRPA1V1; [2]
  A1V1 activation, % of agonist value: 34.7%

## CCCCCCCCCC1CCCC(=O)O1 (stereo not shown) [Delta-tetradecalactone]
Human TRPV1; Table 1(g)
  V1 activation, % of agonist value: 33.0%
TRPA1V1; [1]
  A1V1 activation, % of agonist value: 61.7%

## CCCCC1CCCCC(=O)O1 (stereo not shown) [Epsilon-Decalactone]
Human TRPV1; Table 1(f)
  V1 activation, % of agonist value: 47.7%
TRPA1V1; [4]
  A1V1 activation, % of agonist value: 52.9%

## CSCc1ccco1 [Furfuryl methyl sulfide]
Human TRPV1; Table 1(g)
  activation at 1000 µM: 50.1%
TRPA1V1; [1]
  A1V1 activation, % of agonist value: 111.6%

## C=C(C)[C@@H]1CCC2=CCC[C@@H](C)[C@]2(C)C1 [Valencene]
TRPA1V1; [5]
  A1V1 activation, % of agonist value: 66.32%
Human TRPA1; Table 1(c)
  A1 activation, % of agonist value: 61.97%

## COc1ccc(C=O)cc1OC [Veratraldehyde]
TRPA1V1; [5]
  A1V1 activation, % of agonist value: 69.76%
Human TRPA1; Table 1(c)
  activation at 1000 µM: 73.8%

## CCCCCC(C=O)=Cc1ccccc1 [alpha-Amylcinnamaldehyde]
TRPA1V1; [5]
  A1V1 activation, % of agonist value: 82.7%
Human TRPA1; Table 1(c)
  activation at 1000 µM: 86.6%

## CC1=CCC(C(C)(C)OC=O)CC1 (stereo not drawn) [alpha-Terpinyl formate]
TRPA1V1; [5]
  A1V1 activation, % of agonist value: 71%
Human TRPA1; Table 1(c)
  A1 activation, % of agonist value: 82.2%

## C=C1CC/C=C(\C)CC[C@@H]2[C@@H]1CC2(C)C [beta-Caryophyllene]
TRPA1V1; [6]
  A1V1 activation, % of agonist value: 103.8%
Human TRPA1; Table 1(d)
  activation at 1000 µM: 134%

## C=CC(C)=CCC=C(C)C [beta-Ocimene]
TRPA1V1; [5]
  A1V1 activation, % of agonist value: 92%
Human TRPA1; Table 1(c)
  activation at 1000 µM: 112%

## CC/C=C\CCOC(=O)C/C=C\CC [cis-3-Hexenyl cis-3-hexenoate]
TRPA1V1; [5]
  A1V1 activation, % of agonist value: 97.4%
Human TRPA1; Table 1(c)
  activation at 1000 µM: 107%

## CC/C=C\CCOC(=O)CC(C)C [cis-3-Hexenyl isovalerate]
TRPA1V1; [6]
  A1V1 activation, % of agonist value: 51.6%
Human TRPA1; Table 1(d)
  activation at 1000 µM: 71.7%

## CC/C=C\CCCCC=O [cis-6-Nonenal]
TRPA1V1; [5]
  A1V1 activation, % of agonist value: 93%
Human TRPA1; Table 1(c)
  activation at 1000 µM: 108%

## C=CC(O)CCCCCCC (stereo not shown) [dec-1-en-3-ol]
TRPA1V1; [6]
  A1V1 activation, % of agonist value: 69.5%
Human TRPA1; Table 1(d)
  activation at 1000 µM: 90%

## Cc1ccc(O)cc1 [p-Cresol]
TRPA1V1; [6]
  A1V1 activation, % of agonist value: 38.52%
Human TRPA1; Table 1(d)
  activation at 1000 µM: 61%

## CC(=O)c1ccc(O)cc1 [p-Hydroxyacetophenone]
TRPA1V1; [5]
  A1V1 activation, % of agonist value: 49.38%
Human TRPA1; Table 1(c)
  activation at 1000 µM: 52.8%

## C=C(C)C1CCC(C)C(=O)C1 (stereo not shown) [p-Menth-8-en-2-one]
TRPA1V1; [7]
  A1V1 activation, % of agonist value: 59.5%
Human TRPA1; Table 1(e)
  activation at 1000 µM: 39.9%

## CCCC(=O)OCc1ccc(OC)cc1 [p-Methoxybenzyl butyrate]
TRPA1V1; [7]
  A1V1 activation, % of agonist value: 58.97%
Human TRPA1; Table 1(e)
  activation at 1000 µM: 34%

## CCC/C=C/COC(=O)CCC [trans-2-Hexenyl butyrate]
TRPA1V1; [6]
  A1V1 activation, % of agonist value: 20%
Human TRPA1; Table 1(d)
  activation at 1000 µM: 48.9%

## CCCCC/C=C/C=O [trans-2-Octanal]
TRPA1V1; [5]
  A1V1 activation, % of agonist value: 115%
Human TRPA1; Table 1(c)
  A1 activation, % of agonist value: 112%

## Bisabolene
TRPA1V1; [6]
  A1V1 activation, % of agonist value: 46.2%
Human TRPA1; Table 1(d)
  A1 activation, % of agonist value: 77%

## L-Ascorbic acid, calcium salt (2:1)
TRPA1V1; [5]
  A1V1 activation, % of agonist value: 93.20%
Human TRPA1; Table 1(c)
  A1 activation, % of agonist value: 88.00%

## Myrtenal
TRPA1V1; [5]
  A1V1 activation, % of agonist value: 111.3%
Human TRPA1; Table 1(c)
  A1 activation, % of agonist value: 95.8%
